Here are results for eight compounds from patent US20260234165A1, “MACROCYCLIC COMPOUNDS, PREPARATION METHOD THEREFOR, AND USE THEREOF” (GENFLEET THERAPEUTICS (SHANGHAI) INC., priority 2004, published 2026).

Structures are written as SMILES. Where a name gives a salt, the structure may show the parent alone. Read-outs that look alike come from different tables or passages of the source.

What all share (format): cell-based, human
The subject of assay [1] is p-ERK in AsPC-1 cells (KRAS G12D mutation). The assay is described as follows: Cell p-ERK assay (HTRF) in AsPC-1 cells. The settings on record: AsPC-1 cells, 3 h compound incubation, HTRF p-ERK T202/Y204, read-out: AsPC-1 p-ERK IC50. In outline:
(§1)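 Cells are plated (AsPC-1 at 10000, NCI-H441 at 20000 per well) and cultured overnight. Next day compound is added in a 3.16-fold dilution series with 0.1% DMSO and left 3 h. After lysis, p-ERK antibodies incubate 4 h before HTRF reading and four-parameter IC50 fitting.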

Assay [2] deals with AsPC-1 cells (KRAS G12D mutation). The assay is described as follows: 3D cell proliferation assay (CellTiter Glo-3D), AsPC-1. The settings on record: medium with 2% FBS, read-out: AsPC-1 AP IC50. In short, it runs like this: (§2)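 Luminescent CellTiter-Glo 3D readout after 5-day compound exposure (3.16-fold series, 0.1% DMSO, 2% FBS medium) at 37°C on 800 cells/well plated the day before; IC50 from four-parameter curve of inhibition relative to DMSO and blank wells.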
For orientation: ATP-based viability assays read luminescence as a measure of living cells.

Assay [3] deals with p-ERK in NCI-H441 cells (KRAS G12V mutation). Kind of assay: Cell p-ERK assay (HTRF) in NCI-H441 cells. The settings on record: NCI-H441 cells, 3 h compound incubation, HTRF p-ERK T202/Y204, read-out: H441 p-ERK IC50. In outline:
as §1

The test system of the next assay is NCI-H441 cells. The assay is described as follows: 3D cell proliferation assay (CellTiter Glo-3D), NCI-H441. As to conditions: medium with 2% FBS, read-out: H441 AP IC50. In short, it runs like this:
as §2

Setting [4] is: Homo sapiens, ASPC1, 3D cell proliferation (CellTiter Glo-3D).
Setting [5] is: Homo sapiens, NCI-H441, 3D cell proliferation (CellTiter Glo-3D).
Where [6] appears, read: 3D cell proliferation (CellTiter Glo-3D).

As a reminder, the IC50 is the concentration needed to halve the response being measured. On to `CCn1c(-c2cc(CCN3CCS(=O)(=O)CC3)cnc2[C@H](C)OC)c2c3cc(ccc31)-c1csc(n1)C[C@H](NC(=O)[C@H]1[C@H](C)[C@@H]1C)C(=O)N1CCC[C@H](N1)C(=O)OCC(C)(C)C2` (atropisomer, axis not shown; (Ra)) [Compound Z485, (1r,2R,3S)—N-((6^3S,4S,Z)—(Ra)-1^2-(5-(2-(1,1-dioxidothiomorpholino)ethyl)-2-((S)-1-methoxyethyl)pyridin-3-yl)-11-ethyl-10,10-dimethyl-5,7-dioxo-6^1,6^2,6^3,6^4,6^5,6^6-hexahydro-1^1H-8-oxa-2(4,2)-thiazola-1(5,3)-indola-6(1,3)-pyridazinacycloundecaphane-4-yl)-2,3-dimethylcyclopropane-1-carboxamide], for which the IC50 in assay [1] (Homo sapiens, ASPC1, 3 h) was 0.73 nM; in assay [2] (setting [4]) it was 0.96 nM; in assay [3] (Homo sapiens, NCI-H441, 3 h) it was 0.35 nM; in the assay on NCI-H441 cells (setting [5]) it was 0.42 nM.
`CCn1c(-c2cc(C#CCN3CCCOCC3)cnc2[C@H](C)OC)c2c3cc(ccc31)-c1csc(n1)C[C@H](NP(=O)(CC)CC)C(=O)N1CCC[C@H](N1)C(=O)OCC(C)(C)C2` (atropisomer, axis not shown; (Ra)) [Compound Z920, N-((6^3S,4S,Z)—(Ra)-1^2-(5-(3-(1,4-oxazepan-4-yl)prop-1-yn-1-yl)-2-((S)-1-methoxyethyl)pyridin-3-yl)-1^1-ethyl-10,10-dimethyl-5,7-dioxo-6^1,6^2,6^3,6^4,6^5,6^6-hexahydro-1^1H-8-oxa-2(4,2)-thiazola-1(5,3)-indola-6(1,3)-pyridazinacycloundecaphane-4-yl)-P,P-diethylphosphoramidite formate]: the IC50 in assay [1] is 33.8 nM; in assay [2] (setting [6]), 38.3 nM; in assay [3], 9.41 nM; with NCI-H441 cells (setting [6]) it was 15 nM.
Take `CCn1c(-c2cc(C#CCN3CCCOCC3)cnc2[C@H](C)OC)c2c3cc(ccc31)-c1csc(n1)C[C@H](NC(=O)C[C@H]1CC1(F)F)C(=O)N1CCC[C@H](N1)C(=O)OCC(C)(C)C2` (atropisomer, axis not shown; (Ra)) [Compound Z932-2, N-((6^3S,4S,Z)—(Ra)-1^2-(5-(3-(1,4-oxazepan-4-yl)prop-1-yn-1-yl)-2-((S)-1-methoxyethyl)pyridin-3-yl)-1^1-ethyl-10,10-dimethyl-5,7-dioxo-6^1,6^2,6^3,6^4,6^5,6^6-hexahydro-1^1H-8-oxa-2(4,2)-thiazola-1(5,3)-indola-6(1,3)-pyridazinacycloundecaphane-4-yl)-2-((S)-2,2-difluorocyclopropyl)acetamide]: the IC50 in assay [1] (Homo sapiens, ASPC1, 3 h) stood at 2.62 nM; in assay [2] (setting [4]), 5.52 nM; in assay [3] (Homo sapiens, NCI-H441, 3 h) it was 1.16 nM; in the assay on NCI-H441 cells (setting [5]), 2.32 nM.
In the same order, the values of `[2H]C([2H])([2H])C1(C([2H])([2H])[2H])COC(=O)[C@@H]2CCCN(N2)C(=O)[C@@H](NC(=O)[C@H]2[C@H](C)[C@@H]2C)Cc2nc(cs2)-c2ccc3c(c2)c(c(-c2cc(OCCN4CCOC5(CC5)C4)cnc2[C@H](C)OC)n3CC)C1` (atropisomer, axis not shown; (Ra)) [Compound Z501, (1r,2R,3S)—N-((6^3S,4S,Z)-1^1-ethyl-(Ra)-1^2-(5-(2-(4-oxa-7-azaspiro[2.5]octan-7-yl)ethoxy)-2-((S)-1-methoxyethyl)pyridin-3-yl)-10,10-bis(methyl-d3)-5,7-dioxo-6^1,6^2,6^3,6^4,6^5,6^6-hexahydro-11H-8-oxo-2(4,2)-thiazola-1(5,3)-indola-6(1,3)-pyridazinacycloundecaphane-4-yl)-2,3-dimethylcyclopropane-1-carboxamide] are 0.35 nM, 0.52 nM, 0.22 nM and 0.22 nM.
Turning to `CO[C@@H](C)c1ncc(OCCN2CCOC3(CC3)C2)cc1-c1c2c3cc(ccc3n1C(C)C)-c1csc(n1)C[C@H](NC(=O)[C@H]1[C@H](C)[C@@H]1C)C(=O)N1CCC[C@H](N1)C(=O)OCC1(CC1)C2` (atropisomer, axis not shown; (Ra)) [Compound Z462, (1r,2R,3S)—N-((3′S,4′S,Z)-2′-(5-(2-(4-oxa-7-azaspiro[2,5]octan-7-yl)ethoxy)-(Ra)-2-((S)-1-methoxyethyl)pyridin-3-yl)-1′-isopropyl 5′,7′-dioxospiro[cyclopropane-1,10′-8-oxa-2(4,2)-thiazola-1(5,3)-indola-6(1,3)-pyridazinacycloundecaphan]-4′-yl)-2,3-dimethylcyclopropane-1-carboxamide], the IC50 in assay [1] (Homo sapiens, ASPC1, 3 h) was determined as 1.6 nM; in assay [2] (setting [4]), 2.72 nM; in assay [3] (Homo sapiens, NCI-H441, 3 h), 1.12 nM; with NCI-H441 cells (setting [5]), 1.37 nM.
For `CO[C@@H](C)c1ncc(OCCN2CCOC3(CC3)C2)cc1-c1c2c3cc(ccc3n1CC(F)(F)F)-c1csc(n1)C[C@H](NC(=O)[C@H]1[C@H](C)[C@@H]1C)C(=O)N1CCC[C@H](N1)C(=O)OCC1(CC1)C2` (atropisomer, axis not shown; (Ra)) [Compound Z380, (1r,2R,3S)—N-((3′S,4′S,Z)—(Ra)-2′-(5-(2-(4-oxa-7-azaspiro[2,5]octan-7-yl)ethoxy)-2-((S)-1-methoxyethyl)pyridin-3-yl)-5′,7′-dioxo-1′-(2,2,2-trifluoroethyl)spiro[cyclopropane-1,10′-8-oxa-2(4,2)-thiazola-1(5,3)-indola-6(1,3)-pyridazinacycloundecaphan]-4-yl)-2,3-dimethylcyclopropane-1-carboxamide], the IC50 in assay [1] came out at 9.45 nM; in assay [2] (setting [6]) it was 6.28 nM; in assay [3], 3.67 nM; in the assay on NCI-H441 cells (setting [6]) it was 4.75 nM.
For the compound `C=C1CCN2CCN(c3cnc([C@H](C)OC)c(-c4c5c6cc(ccc6n4CC)-c4csc(n4)C[C@H](NC(=O)[C@H]4[C@H](C)[C@@H]4C)C(=O)N4CCC[C@H](N4)C(=O)OCC(C)(C)C5)c3)C[C@H]2C1` (atropisomer, axis not shown; (Ra)) [Compound Z309, (1r,2R,3S)—N-((6^3S,4S,Z)-1^1-ethyl-(Ra)-1^2-(2-((S)-1-methoxyethyl)-5-((R)-8-methyleneoctahydro-2H-pyrido[1,2-a]pyrazin-2-yl)pyridin-3-yl)-10,10-dimethyl-5,7-dioxo-6^1,6^2,6^3,6^4,6^5,6^6-hexahydro-1^1H-8-oxa-2(4,2)-thiazola-1(5,3)-indola-6(1,3)-pyridazinacycloundecaphane-4-yl)-2,3-dimethylcyclopropane-1-carboxamide], the IC50 in assay [1] is 0.38 nM; in assay [2] (setting [4]) it was 2.09 nM; in assay [3], 0.96 nM; in the assay on NCI-H441 cells (setting [5]) it was 0.62 nM.
In the case of `CCn1c(-c2cc(C#CCN3CCCNCC3)cnc2[C@H](C)OC)c2c3cc(ccc31)-c1csc(n1)C[C@H](NC(=O)[C@H]1[C@H](C)[C@@H]1C)C(=O)N1CCC[C@H](N1)C(=O)OCC(C)(C)C2` (atropisomer, axis not shown; (Ra)) [Compound Z951], the IC50 in assay [1] (Homo sapiens, ASPC1, 3 h) turned out to be 0.42 nM; in assay [2] (setting [4]) it was 0.36 nM; in assay [3] (Homo sapiens, NCI-H441, 3 h), 0.5 nM; in the assay on NCI-H441 cells (setting [5]) it was 0.43 nM.
